Holding throughout (type): in vivo
The test system of assay [1] is Echinochloa crus-galli (ECHCG). The assay is described as follows: Pre-emergence biological efficacy, glasshouse, 1000 g/ha, evaluated after 13 days (100=total damage to plant; 0=no damage to plant). To be noted: rate 1,000 g/ha; for pest or weed control at 1000 g/ha: Echinochloa crus-galli, 312 h, read-out: Percentage damage caused to weed species, pre-emergence, ECHCG. Summed up: (§1)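 Test species are sown into pots of standard soil. Plants then grow in the glasshouse under controlled conditions (24/16° C. day/night, 14 hours light, 65% humidity) and receive water twice a day.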

In assay [2] the test system is Ipomoea hederaceae (IPOHE). The description is as above. The following applies: rate 1,000 g/ha; for pest or weed control at 1000 g/ha: Ipomoea, 312 h, read-out: Percentage damage caused to weed species, pre-emergence, IPOHE. Summed up: as §1
Assay [3] has as its system Alopecurus myosuroides (ALOMY). The assay is described as above. To be noted: rate 1,000 g/ha; for pest or weed control at 1000 g/ha: Alopecurus myosuroides, 312 h, read-out: Percentage damage caused to weed species, pre-emergence, ALOMY. In short, it runs like this:
as §1

Assay [4] concerns Solanum nigrum (SOLNI). The description is as above. The following applies: rate 1,000 g/ha; for pest or weed control at 1000 g/ha: Solanum nigrum, 312 h, read-out: Percentage damage caused to weed species, pre-emergence, SOLNI. In short, it runs like this:
as §1

The subject of assay [5] is Amaranthus retroflexus (AMARE). The assay is described as above. To be noted: rate 1,000 g/ha; for pest or weed control at 1000 g/ha: Amaranthus retroflexus, 312 h, read-out: Percentage damage caused to weed species, pre-emergence, AMARE. Summed up:
as §1

Assay [6] has as its system Setaria faberi (SETFA). The assay is described as above. To be noted: rate 1,000 g/ha; for pest or weed control at 1000 g/ha: Setaria faberi, 312 h, read-out: Percentage damage caused to weed species, pre-emergence, SETFA. Summed up:
as §1

Assay [7] concerns Ipomoea hederaceae (IPOHE). As to the kind of experiment: Post-emergence biological efficacy, glasshouse, 500 or 1000 g/ha, evaluated after 13 days (100=total damage to plant; 0=no damage to plant). The following applies: rate 1,000 g/ha; for pest or weed control at 1000 g/ha: Ipomoea, 312 h, read-out: Percentage damage caused to weed species, post-emergence, IPOHE. In short, it runs like this: (§2)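 Plants raised from seed in pots of standard soil receive the spray after emergence. They then grow on under controlled glasshouse conditions (24/16° C. day/night, 14 hours light, 65% humidity) and are watered twice a day.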

Assay [8] has as its system Alopecurus myosuroides (ALOMY). The assay is described as above. To be noted: rate 1,000 g/ha; for pest or weed control at 1000 g/ha: Alopecurus myosuroides, 312 h, read-out: Percentage damage caused to weed species, post-emergence, ALOMY. In short, it runs like this:
as §2

Assay [9] deals with Echinochloa crusgaffi (ECHCG). The assay is described as above. The following applies: rate 1,000 g/ha; for pest or weed control at 1000 g/ha: Echinochloa, 312 h, read-out: Percentage damage caused to weed species, post-emergence, ECHCG. Summed up:
as §2

Assay [10] relates to Solanum nigrum (SOLNI). The description is as above. The following applies: rate 1,000 g/ha; for pest or weed control at 1000 g/ha: Solanum nigrum, 312 h, read-out: Percentage damage caused to weed species, post-emergence, SOLNI. Summed up: as §2
In assay [11] the test system is Amaranthus retroflexus (AMARE). The description is as above. To be noted: rate 1,000 g/ha; for pest or weed control at 1000 g/ha: Amaranthus retroflexus, 312 h, read-out: Percentage damage caused to weed species, post-emergence, AMARE. Summed up: as §2
Assay [12] relates to Setaria faberi (SETFA). Described as above. The following applies: rate 1,000 g/ha; for pest or weed control at 1000 g/ha: Setaria faberi, 312 h, read-out: Percentage damage caused to weed species, post-emergence, SETFA. Summed up: as §2

With `CCCCCCCCOC(=O)c1nc(-c2ccc(Cl)c(OC)c2F)cc2[nH]cc(C)c12` [Compound 22-77], in assay [1], the “Percentage damage caused to weed species, pre-emergence, ECHCG” value is reported as 0%. Moreover, the “Percentage damage caused to weed species, pre-emergence, IPOHE” value in assay [2] turned out to be 90%. The “Percentage damage caused to weed species, pre-emergence, ALOMY” value in assay [3] is 10%. Besides, the “Percentage damage caused to weed species, pre-emergence, SOLNI” value with Solanum nigrum (SOLNI) [4] is 80%. The “Percentage damage caused to weed species, pre-emergence, AMARE” value in [5] is recorded as 20%. In addition, the “Percentage damage caused to weed species, pre-emergence, SETFA” value with Setaria faberi (SETFA) [6] is 20%. For the same compound, the “Percentage damage caused to weed species, post-emergence, IPOHE” value in assay [7] came out at 30%. In addition, in assay [8], the “Percentage damage caused to weed species, post-emergence, ALOMY” value turned out to be 10%. For the same compound, the “Percentage damage caused to weed species, post-emergence, ECHCG” value in [9] amounted to 0%. In addition, the “Percentage damage caused to weed species, post-emergence, SOLNI” value in the assay with Solanum nigrum (SOLNI) [10] is listed as 90%. In addition, the “Percentage damage caused to weed species, post-emergence, AMARE” value in assay [11] is reported as 70%. In addition, the “Percentage damage caused to weed species, post-emergence, SETFA” value with Setaria faberi (SETFA) [12] is listed as 0%.

Consider `COc1c(Cl)ccc(-c2cc3[nH]cc(C)c3c(C(=O)OC(C)C)n2)c1F` [Compound 22-78, 6-(4-Chloro-2-fluoro-3-methoxyphenyl)-4-isopropoxycarbonyl-3-methyl-1H-pyrrolo[3,2-c]pyridne], for which the pest or weed control at 1000 g/ha worked out at 0% in assay [1]; 0% in assay [2]; 0% in [3]; 10% in the assay with Solanum nigrum (SOLNI) [4]; 20% in assay [5]; 0% in the assay with Setaria faberi (SETFA) [6]. For the same compound, the pest or weed control at 1000 g/ha in assay [7] came out at 70%; in assay [8], 0%; in assay [9] it was 0%; in the assay with Solanum nigrum (SOLNI) [10] it was 60%; in [11], 0%; in the assay with Setaria faberi (SETFA) [12], 0%.

Regarding `CCCCCC(C)OC(=O)c1nc(-c2ccc(Cl)c(OC)c2F)cc2[nH]cc(C)c12` (stereo not drawn) [Compound 22-79, 6-(4-Chloro-2-fluoro-3-methoxyphenyl)-4-(hept-2-yloxycarbonyl)-3-methyl-1H-pyrrolo[3,2-c]pyridine], the pest or weed control at 1000 g/ha in assay [1] was 10%; in [2], 30%; in assay [3], 10%; with Solanum nigrum (SOLNI) [4], 50%; in [5], 10%; in the assay with Setaria faberi (SETFA) [6], 20%. For the same compound, the pest or weed control at 1000 g/ha in [7] came out at 40%; in [8], 10%; in [9], 0%; in the assay on Solanum nigrum (SOLNI) [10] it was 70%; in assay [11] it was 40%; in the assay with Setaria faberi (SETFA) [12], 10%.

Take `C=CCOC(=O)c1nc(-c2ccc(Cl)c(OC)c2F)cc2[nH]cc(C)c12` [Compound 22-80, 6-(4-Chloro-2-fluoro-3-methoxyphenyl)-3-methyl-4-(prop-2-enyloxycarbonyl)-1H-pyrrolo[3,2-c]pyridine]: the pest or weed control at 1000 g/ha came to 20% in [1]; 50% in assay [2]; 20% in [3]; 60% in the assay with Solanum nigrum (SOLNI) [4]; 40% in assay [5]; 20% with Setaria faberi (SETFA) [6]. The pest or weed control at 1000 g/ha in assay [7] amounted to 50%; in assay [8] it was 10%; in assay [9] it was 10%; with Solanum nigrum (SOLNI) [10], 90%; in assay [11], 70%; in the assay with Setaria faberi (SETFA) [12], 20%.

As to `CCOCCOC(=O)c1nc(-c2ccc(Cl)c(OC)c2F)cc2[nH]cc(C)c12` [Compound 22-82, 6-(4-Chloro-2-fluoro-3-methoxyphenyl)-4-[(2-ethoxy)-ethoxycarbonyl]-3-methyl-1H-pyrrolo[3,2-c]pyridine], the pest or weed control at 1000 g/ha in assay [1] amounted to 20%; in [2] it was 90%; in assay [3], 10%; with Solanum nigrum (SOLNI) [4], 90%; in assay [5], 70%; in the assay on Setaria faberi (SETFA) [6], 0%. The pest or weed control at 1000 g/ha in [7] was determined as 40%; in assay [8], 20%; in [9] it was 20%; in the assay on Solanum nigrum (SOLNI) [10], 90%; in assay [11], 80%; in the assay on Setaria faberi (SETFA) [12], 40%.

Turning to `CCCCOCCOC(=O)c1nc(-c2ccc(Cl)c(OC)c2F)cc2[nH]cc(C)c12` [Compound 22-83], the pest or weed control at 1000 g/ha in [1] is 20%; in assay [2], 80%; in [3], 20%; in the assay with Solanum nigrum (SOLNI) [4], 80%; in assay [5] it was 0%; with Setaria faberi (SETFA) [6], 10%. Further, the pest or weed control at 1000 g/ha in assay [7] came out at 60%; in [8] it was 20%; in assay [9], 20%; in the assay with Solanum nigrum (SOLNI) [10], 90%; in assay [11], 90%; in the assay with Setaria faberi (SETFA) [12] it was 40%.

As to `CCCCOCC(C)OC(=O)c1nc(-c2ccc(Cl)c(OC)c2F)cc2[nH]cc(C)c12` (stereo not drawn) [Compound 22-84, 4-[(1-n-Butoxy)-prop-2-yloxycarbonyl]-6-(4-chloro-2-fluoro-3-methoxyphenyl)-3-methyl-1H-pyrrolo[3,2-c]pyridine], the pest or weed control at 1000 g/ha in assay [1] is 20%; in assay [2], 80%; in [3] it was 20%; in the assay with Solanum nigrum (SOLNI) [4] it was 70%; in assay [5], 40%; in the assay with Setaria faberi (SETFA) [6] it was 10%. In addition, the pest or weed control at 1000 g/ha stood at 40% in [7]; 20% in assay [8]; 20% in assay [9]; 90% with Solanum nigrum (SOLNI) [10]; 80% in assay [11]; 30% in the assay with Setaria faberi (SETFA) [12].

As for `COCCOCCOC(=O)c1nc(-c2ccc(Cl)c(OC)c2F)cc2[nH]cc(C)c12` [Compound 22-85, 6-(4-Chloro-2-fluoro-3-methoxyphenyl)-4-{2-[(2-methoxy)-ethoxy]-ethoxycarbonyl}-3-methyl-1H-pyrrolo[3,2-c]pyridine], the pest or weed control at 1000 g/ha in [1] was 10%; in assay [2], 80%; in assay [3], 10%; in the assay on Solanum nigrum (SOLNI) [4], 100%; in assay [5], 100%; with Setaria faberi (SETFA) [6] it was 10%. Moreover, the pest or weed control at 1000 g/ha in assay [7] came to 40%; in assay [8] it was 30%; in assay [9], 20%; in the assay on Solanum nigrum (SOLNI) [10], 90%; in assay [11] it was 90%; in the assay with Setaria faberi (SETFA) [12], 20%.

As for `COc1c(Cl)ccc(-c2cc3[nH]cc(C)c3c(C(=O)OCc3ccccc3)n2)c1F` [Compound 22-86, 4-Benzyloxycarbonyl-6-(4-chloro-2-fluoro-3-methoxyphenyl)-3-methyl-1H-pyrrolo[3,2-c]pyridine], the pest or weed control at 1000 g/ha in [1] was found to be 0%; in assay [2], 0%; in [3], 0%; in the assay on Solanum nigrum (SOLNI) [4], 10%; in [5] it was 0%; in the assay on Setaria faberi (SETFA) [6], 0%. Moreover, the pest or weed control at 1000 g/ha in assay [7] was 40%; in [8], 10%; in assay [9] it was 10%; with Solanum nigrum (SOLNI) [10], 70%; in assay [11], 40%; in the assay with Setaria faberi (SETFA) [12], 0%.

For the origin of these results see US20120202690A1, “HERBICIDAL COMPOUNDS” (SYNGENTA LIMITED, priority 2009, published 2012).
